These results are taken from patent publication US6525032B2, “Purine derivatives” (Pfizer Inc, priority 2000, dated 2003).

The subject of the experiment is neutrophils activated by fMLP. Kind of experiment: superoxide production from human neutrophils activated by fMLP (cytochrome C reduction). To be noted: Neutrophil; fMLP-induced superoxide production, neutrophils from human peripheral blood, cytochalasin B priming, adenosine deaminase present; read-out: IC50 (concentration giving 50% inhibition compared to the control response to fMLP). It is filed as cell-based. How it is done: This is evaluated by determining the compound profile in an assay where superoxide production was measured from neutrophils activated by fMLP. Neutrophils were isolated from human peripheral blood using dextran sedimentation followed by centrifugation through Ficoll-Hypaque solution. Any contaminating erythrocytes in the granulocyte pellet were removed by lysis with ice-cold distilled water. Superoxide production from the neutrophils was induced by fMLP in the presence of a priming concentration of cytochalasin B. Adenosine deaminase was included in the assay to remove any endogenously produced adenosine that might suppress superoxide production. The effect of the compound on the fMLP-induced response was monitored colorometrically from the reduction of cytochrome C within the assay buffer. The potency of the compounds was assessed by the concentration giving 50% inhibition (IC50) compared to the control response to fMLP.

Regarding `CCNC(=O)[C@H]1O[C@@H](n2cnc3c(NCC(c4ccccc4)c4ccccc4)nc(C(=O)NCCCN4CCCC4)nc32)[C@H](O)[C@@H]1O` [Example 7, 6-[(2,2-diphenylethyl)amino]-9-{(2R,3R,4S,5S)-5-[(ethylamino)carbonyl]-3,4-dihydroxytetrahydro-2-furanyl}-N-[3-(1-pyrrolidinyl)propyl]-9H-purine-2-carboxamide], the IC50 was below 40 nM. With `CCNC(=O)[C@H]1O[C@@H](n2cnc3c(NC(CC)CC)nc(C(=O)NCCN4CCCCC4)nc32)[C@H](O)[C@@H]1O` [Example 10, 9-{(2R,3R,4S, 5S)-5-[(ethylamino)carbonyl]-3,4-dihydroxytetrahydro-2-furanyl}-6-[(1-ethylpropyl)amino]-N-[2-(1-piperidinyl)ethyl]-9H-purine-2-carboxamide], the IC50 is below 40 nM. Regarding `CCNC(=O)[C@H]1O[C@@H](n2cnc3c(NCC(c4ccccc4)c4ccccc4)nc(C(=O)NCCN4CCC(C(C)C)CC4)nc32)[C@H](O)[C@@H]1O` [Example 12, 6-[(2,2-diphenylethyl)amino]-9-{(2R,3R,4S,5S)-5-[(ethylamino)carbonyl]-3,4-dihydroxytetrahydro-2-furanyl}-N-[2-(4-isopropyl-1-piperidinyl)ethyl]-9H-purine-2-carboxamide], the IC50 is below 40 nM.

`CCNC(=O)[C@H]1O[C@@H](n2cnc3c(NCC(c4ccccc4)c4ccccc4)nc(C(=O)NCCCNC(C)C)nc32)[C@H](O)[C@@H]1O` [Example 16, 6-[(2,2-diphenylethyl)amino]-9-{(2R,3R,4S,5S)-5-[(ethylamino)carbonyl]-3,4-dihydroxytetrahydro-2-furanyl}-N-[3-(isopropylamino)propyl]-9H-purine-2-carboxamide]: the IC50 was below 40 nM. The same measure for `CCNC(=O)[C@H]1O[C@@H](n2cnc3c(NCC4c5ccccc5-c5ccccc54)nc(C(=O)NCCN4CCCCC4)nc32)[C@H](O)[C@@H]1O` [Example 20, 9-{(2R,3R,4S,5S)-5-[(ethylamino)carbonyl]-3,4-dihydroxytetrahydro-2-furanyl}-6-[(9H-fluoren-9-ylmethyl)amino]-N-[2-(1-piperidinyl)ethyl]-9H-purine-2-carboxamide]: below 40 nM; for `CCNC(=O)[C@H]1O[C@@H](n2cnc3c(NCC(c4ccccc4)c4ccccc4)nc(C(=O)NCCCN(CC)CC)nc32)[C@H](O)[C@@H]1O` [Example 21, N-[3-(diethylamino)propyl]-6-[(2,2-diphenylethyl)amino]-9-{(2R,3R,4S,5S)-5-[(ethylamino)carbonyl]-3,4-dihydroxytetrahydro-2-furanyl}-9H-purine-2-carboxamide]: below 40 nM; for `CCNC(=O)[C@H]1O[C@@H](n2cnc3c(NCC(c4ccccc4)c4ccccc4)nc(C(=O)NCCCN(C)C)nc32)[C@H](O)[C@@H]1O` [Example 27, N-[3-(dimethylamino)propyl]-6-[(2,2-diphenylethyl)amino]-9-{(2R,3R,4S,5S)-5-[(ethylamino)carbonyl]-3,4-dihydroxytetrahydro-2-furanyl}-9H-purine-2-carboxamide]: below 40 nM. On to `CCNC(=O)[C@H]1O[C@@H](n2cnc3c(NCC(c4ccccc4)c4ccccc4)nc(C(=O)NCCN4CCC(C)CC4)nc32)[C@H](O)[C@@H]1O` [Example 31, 6-[(2,2-diphenylethyl)amino]-9-{(2R,3R,4S,5S)-5-[(ethylamino)carbonyl]-3,4-dihydroxytetrahydro-2-furanyl}-N-[2-(4-methyl-1-piperidinyl)ethyl]-9H-purine-2-carboxamide], for which the IC50 was below 40 nM.
